# “Also recorded” adds a separate entry of the source.
# Tests used:
# Format in all cases: cell-based, human
# HEK NM-mCherry^sol cells = assay: NM-mCherry aggregate induction by coculture with T47D NM-GFP^agg donor cells; conditions: 10 μM, donors 1 d pretreated, coculture 1 d in presence of drug; vs DMSO
# [1] = tested on: HEK Tau-FusionRed^sol cells expressing murine XPR1-HA; assay: Tau aggregate induction in recipient cells by coculture with N2a s2E Tau-GFP^CBD donor cells; conditions: donors pretreated with 10 μM; coculture 3 d in the presence of 10 μM; vs DMSO
# Method: To examine this effect on Tau aggregate spreading, an N2a s2E cell clone stably propagating aggregated Tau-GFP^CBD was produced (FIG. 11a). […]. Cells and EVs were analyzed for the presence of aggregated Tau-GFP. Pronase-resistant Tau-GFP was found in both cell lysate and EVs (FIG. 2q). To inhibit MuERV gene product maturation, donor cells were treated with Amprenavir for three days. Donor cells and donor cell-derived EVs were subsequently exposed for three days to recipient HEK cells expressing soluble Tau-FusionRed and the murine XPR1 receptor variant required for MuERV Env interaction. Due to this long incubation time, the coculture and EV induction assays were performed in the presence of Amprenavir (FIG. 11b). […]
# Recipient cells were cultured on CellCarrier-96 plates or 384 black microplates (PerkinElmer) at appropriate cell numbers for 1 h, and then treated with 5-10 μl of prepared samples (isolated EVs or recombinant NM fibrils). […] On average, a total of 3-4×10^4 cells per well and at least 3 wells per treatment were analyzed.
# (§1) The treatment of cells with Amprenavir (10 μM; Santa Cruz) and DMSO was performed for 72 h in EV-depleted medium in T175 flasks. Afterwards, the total numbers of viable cells and the viability upon drug treatment were determined using the Vi-VELL™ XR Cell Viability Analyzer (Beckman Coulter). […]
# [2] = tested on: HEK Tau-FusionRed^sol cells; assay: Tau-FusionRed aggregate induction by coculture with T47D Tau-GFP^AD or Tau-GFP^FTLD donor cells; conditions: T47D Tau-GFP^AD or Tau-GFP^FTLD donors pretreated one day with 10 μM, coculture 3 d in presence of drug; vs DMSO
# Method: FIG. 4: Human endogenous retrovirus proteins potentiate intercellular Tau aggregate induction. • a. Workflow of Amprenavir treatment. […]. Two days later, these donor cells were incubated with 10 μM Amprenavir or solvent control DMSO for 1 d. Subsequently, donor cells with NM-GFP^agg, Tau-GFP^FTLD or Tau-GFP^AD aggregates were cocultured with recipient HEK NM-mCherry^sol or HEK Tau-FusionRed^sol cells, respectively, for 1 d (NM) or 3 d (Tau) in the presence of 10 μM Amprenavir or DMSO. • b. […] Percentage of recipient HEK NM-Cherry cells that harbor induced NM-mCherry aggregates. • c., d. […] Percentage of HEK Tau-FusionRed cells that harbor Tau-FusionRed^agg after coculture with T47D Tau-GFP^agg donor cell lines (n=6, ***, p<0.001; unpaired student t test).
# To examine the effect of HERV-K proteins on Tau aggregate spreading, a T47D donor cell line stably expressing Tau-GFP^sol was generated. […]
# as §1
compound,measurement,setting,value
CC(C)CN(C[C@@H](O)[C@H](Cc1ccccc1)NC(=O)O[C@H]1CCOC1)S(=O)(=O)c1ccc(N)cc1 [Amprenavir],number of recipient cells with induced NM-mCherry aggregates,HEK NM-mCherry^sol cells,reduced the number of recipient cells with induced NM-mCherry aggregates compared to the DMSO control; also recorded: impairs NM-mCherry aggregate induction
same,Tau-FusionRed aggregate induction in cocultures,[1],decreased Tau-FusionRed aggregate induction in Amprenavir-treated cocultures; also recorded: significantly decreased Tau-FusionRed aggregate induction in recipients
same,Tau aggregate induction in recipient cells,[2],significant decrease in Tau aggregate induction in recipient cells; also recorded: impairs Tau-FusionRed aggregate induction

# Source: patent US20220332799A1, “HERV INHIBITORS FOR USE IN TREATING TAUOPATHIES” (Deutsches Zentrum Für Neurodegenerative Erkrankungen E.V. …, priority 2019, published 2022)
